The structures appear in SMILES notation.

Chain of c-Met (P08581 956-1390 limits assumed): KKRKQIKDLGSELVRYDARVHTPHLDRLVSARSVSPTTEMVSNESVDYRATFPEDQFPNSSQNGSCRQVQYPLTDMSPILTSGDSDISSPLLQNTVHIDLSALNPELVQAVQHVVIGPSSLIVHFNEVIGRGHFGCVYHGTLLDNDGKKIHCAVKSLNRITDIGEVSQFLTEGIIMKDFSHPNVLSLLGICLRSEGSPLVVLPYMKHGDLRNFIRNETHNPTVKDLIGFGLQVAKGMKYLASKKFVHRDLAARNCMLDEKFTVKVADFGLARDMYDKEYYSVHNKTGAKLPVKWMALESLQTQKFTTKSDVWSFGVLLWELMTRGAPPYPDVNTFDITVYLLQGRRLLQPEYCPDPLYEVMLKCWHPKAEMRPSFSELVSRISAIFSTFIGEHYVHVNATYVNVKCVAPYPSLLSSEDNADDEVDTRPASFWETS

This assay concerns the target c-Met (Homo sapiens, UniProt P08581). Put plainly: c-Met inhibitory assay using AlphaScreen (Method A). The format is biochemical. Details: purchased Carna bio Co., Ltd 08-051. To be noted: ATP 20 μM. On the procedure: Inhibitory activity of compounds against c-Met kinase was determined through the following procedures. Method A) c-Met inhibitory assay using AlphaScreen™
A biotinylated peptide including a phosphorylated site of Pyk2 (Tyr402), which is reported as a bio-substrate in Clin. Cancer Res. vol. […] The mixture was allowed to react at room temperature for 20 minutes. EDTA was added to the reaction mixture to a final concentration of 50 mM, to thereby terminate reaction. […] The reaction was done for one hour at room temperature. Thereafter, the fluorescence intensity from the reaction mixture was measured using a multi-label counter (EnVision™, Perkin Elmer).
(In Alpha technology, singlet oxygen from a donor bead excites a nearby acceptor bead.)
As usually defined, the IC50 is the concentration that inhibits the measured activity by half. A higher IC50 goes with weaker potency. Take `COc1cc2nccc(Oc3ccc(NC(=S)NC(=O)Cc4ccccc4)cc3F)c2cc1C(=O)Nc1ccccc1C` [Example 28, 4-(2-Fluoro-4-(3-(2-phenylacetyl)thioureido)phenoxy)-7-methoxy-N-o-tolylquinoline-6-carboxamide]: the half-inhibitory concentration (IC50) came to 94 nM.

Turning to `COc1cc2nccc(Oc3ccc(NC(=S)NC(=O)Cc4ccccc4)cc3F)c2cc1C(=O)NC(CO)CO` [Example 12, N-(1,3-Dihydroxypropan-2-yl)-4-(2-fluoro-4-(3-(2-phenylacetyl)thioureido)phenoxy)-7-methoxyquinoline-6-carboxamide], inhibition was half-maximal at 52 nM (IC50). Compound `COc1cc2nccc(Oc3ccc(NC(=S)NC(=O)Cc4ccccc4)cc3F)c2cc1C(=O)NCc1cccnc1` [Example 4, 4-(2-Fluoro-4-(3-(2-phenylacetyl)thioureido)phenoxy)-7-methoxy-N-(pyridin-3-ylmethyl)quinoline-6-carboxamide] displayed an IC50 of 140 nM.

`COc1cc2nccc(Oc3ccc(NC(=S)NC(=O)Cc4ccccc4)cc3F)c2cc1C(=O)N1CCC(N2CCCC2)CC1` [Example 51, N-(3-Fluoro-4-(7-methoxy-6-(4-(pyrrolidin-1-yl)piperidine-1-carbonyl)quinolin-4-yloxy)phenylcarbamothioyl)-2-phenylacetamide] showed a concentration for half-maximal inhibition (IC50) of 134 nM. `COc1cc2nccc(Oc3ccc(NC(=S)NC(=O)Cc4ccccc4)cc3F)c2cc1C(=O)NCCOCCO` [Example 10, 4-(2-Fluoro-4-(3-(2-phenylacetyl)thioureido)phenoxy)-N-(2-(2-hydroxyethoxy)ethyl)-7-methoxyquinoline-6-carboxamide] yielded an IC50 of 68 nM. `COCCNC(=O)c1cc2c(Oc3ccc(NC(=S)NC(=O)Cc4ccccc4)cc3F)ccnc2cc1OC` [Example 7, 4-(2-Fluoro-4-(3-(2-phenylacetyl)thioureido)phenoxy)-7-methoxy-N-(methoxyethyl)quinoline-6-carboxamide]: the midpoint of inhibition, the IC50, lay at 50 nM. This IC50 and that of the compound before are within 1.5-fold of each other. `CCC(O)CNC(=O)c1cc2c(Oc3ccc(NC(=S)NC(=O)Cc4ccc(F)cc4)cc3F)ccnc2cc1OC` (stereo not drawn) [Example 23, 4-(2-Fluoro-4-(3-(2-(4-fluorophenyl)acetyl)thioureido)phenoxy)-N-(2-hydroxybutyl)-7-methoxyquinoline-6-carboxamide]: the half-inhibitory concentration (IC50) was 250 nM. Compound `COc1cc2nccc(Oc3ccc(NC(=S)NC(=O)Cc4ccccc4)cc3F)c2cc1C(=O)NCC1COC(C)(C)O1` (stereo not drawn) [Example 2, N-((2,2-Dimethyl-1,3-dioxolan-4-yl)methyl)-4-(2-fluoro-4-(3-(2-phenylacetyl)thioureido)phenoxy)-7-methoxyquinoline-6-carboxamide] displayed an IC50 of 167 nM. This IC50 and that of the compound before are within 1.5-fold of each other.

Consider `COc1cc2nccc(Oc3ccc(NC(=S)NC(=O)Cc4ccccc4)cc3F)c2cc1C(=O)NCC(=O)N1CCCC1` [Example 17, 4-(2-Fluoro-4-(3-(2-phenylacetyl)thioureido)phenoxy)-7-methoxy-N-(2-oxo-2-(pyrrolidin-1-yl)ethyl)quinoline-6-carboxamide], for which the IC50 came out at 30 nM. In turn, `CCN(CC)CCNC(=O)c1cc2c(Oc3ccc(NC(=S)NC(=O)Cc4ccccc4)cc3F)ccnc2cc1OC` [Example 8, N-(2-(Diethylamino)ethyl)-4-(2-fluoro-4-(3-(2-phenylacetyl)thioureido)phenoxy)-7-methoxyquinoline-6-carboxamide] displayed an IC50 of 106 nM. `COc1cc2nccc(Oc3ccc(NC(=S)NC(=O)Cc4ccccc4)cc3F)c2cc1C(=O)NCCN1CCOCC1` [Example 9, 4-(2-Fluoro-4-(3-(2-phenylacetyl)thioureido)phenoxy)-7-methoxy-N-(2-morpholinoethyl)quinoline-6-carboxamide]: the IC50 is 102 nM. The IC50 values of the last two compounds are within 1.5-fold of each other. `COc1cc2nccc(Oc3ccc(NC(=S)NC(=O)Cc4ccccc4)cc3F)c2cc1C(=O)NCC(O)c1nnn(C)n1` (stereo not drawn) [Example 30, 4-(2-Fluoro-4-(3-(2-phenylacetyl)thioureido)phenoxy)-N-(2-hydroxy-2-(2-methyl-2H-tetrazol-5-yl)ethyl)-7-methoxyquinoline-6-carboxamide] yielded an IC50 of 40 nM. Compared with the last compound, the IC50 is about 2.5-fold lower.
